Test results: patent US8486974B2 (priority 2007, dated 2013)

What was measured:
[1] = system: platelet aggregation in human whole blood; assay: Whole blood aggregation studies (impedance method); format: cell-based
Experimental: A 500 μl aliquot of blood was mixed with 500 μl of physiological saline and allowed to incubate at 37° C. for 10 mins in the incubation well of a Chrono-Log Whole Blood Aggregometer model 591/592. The sample was then transferred to the assay well, baseline was established and appropriate volume of reagent as above was added. Aggregation was monitored over 6 mins with impedance output recorded on a chart recorder. When testing inhibitors whole blood was pre-incubated with appropriate concentrations of inhibitor in DMSO at 37° C. for a specified length of time before adding the stimulant (10 mins with stirring). Three different aggregating agents, AA (0.5 mM), ADP (10 μM) and Collagen (5 μg/ml) were used. […] DMSO in high concentrations (above 0.25%) can induce a concentration dependent change in platelet cytoplasmic ionised calcium. Before each experiment a control was run using PRP to obtain normal aggregating responses. A sample was also incubated for 10 min at 37° C. with 10 μl DMSO to ensure it was having no inhibitory effect on the aggregation response.

[2] = Hydrolysis in the presence of human liver microsomes (HLM), with or without esterase inhibitors; format: in vitro ADME
Experimental: Pooled plasma/serum solutions (4 ml) were prepared to the correct strength by dilution of plasma with phosphate buffer pH 7.4 (e.g. for a 10% solution 0.4 ml of plasma/serum was added to 3.6 ml of phosphate buffer pH 7.4). Following equilibration of the plasma/serum sample at 37±0.5° C. 100 μl of a stock solution of test compound in acetonitrile (1×10^−4 M) was added and 250 μl aliquots were removed at specified time intervals. Samples were transferred to 1.5 ml Eppendorf tubes containing 500 μl of a 2% w/v solution of nSO4.7H2O (water:acetonitrile, 1:1). Tubes were vortexed for 2 minutes, then centrifuged at 10,000 rpm for 3 minutes at room temperature. Supernatant was aspirated off and analysed by HPLC. The concentration of test compound and metabolites were determined with reference to calibration curves run on that day in the same concentration range and under the same experimental conditions. […] The metabolic fate of the esters under these conditions was also determined by RPHPLC by measuring the concentration of drug and metabolites in the medium as a function of time. […] The BuChE activity of plasma and microsomal samples was determined using the Ellman assay (Ellman et al., 1964). […]

[3] = system: typical digestive proteases; assay: Stability in the presence of digestive proteases; format: in vitro ADME
[4] = system: esterases found in CACO-2 cells; assay: Stability towards esterases found in CACO-2 cells; format: in vitro ADME
[5] = system: MDA synthesis; assay: MDA synthesis by washed platelets; format: cell-based
[6] = system: rabbit liver carboxylesterase; format: in vitro ADME; conditions: 0.1 mM

CC(=O)Oc1ccccc1C(=O)O[C@H]1CO[C@H]2[C@@H]1OC[C@H]2OC(=O)c1ccccc1O [Compound 2, Isosorbide-2-aspirinate-5-salicylate]
IC50 ([1]; Homo sapiens, Platelet, arachidonic acid, impedance method, read-out: IC50, platelet aggregation towards arachidonic acid in human whole blood): 17 µM | potency in inhibition of platelet aggregation in whole blood ([1]; all of the aggregatory stimuli: AA (0.5 mM), ADP (10 μM), Collagen (5 μg/ml)): significantly greater potency than aspirin or ISDA | Drug disappearance ([2]; HLM/isoOMPA (10 uM), conc drug […]): 10 min | Drug disappearance ([2]; human, 0.1 mM, pH 7.4): 10 min | stability in the presence of typical digestive proteases [3]: stable | stability towards esterases found in CACO-2 cells [4]: stable | MDA synthesis by washed platelets [5]: effective | Drug disappearance [6]: 5 min
